The subject of assay [1] is HepG2. Briefly: Lipid-lowering effect in human HepG2 cells assessed as reduction in oleic acid-induced lipid accumulation at 1 uM after 6 hrs by oil-red O staining based spectrophotometry. It is filed as functional, cell-based.
For assay [2], the system named is HepG2. Kind of assay: Lipid-lowering effect in human HepG2 cells assessed as reduction in oleic acid-induced triglyceride accumulation at 10 uM after 24 hrs by oil-red O staining based spectrophotometry. It is filed as functional, cell-based.
Assay [3] relates to HepG2. Briefly: Lipid-lowering effect in human HepG2 cells assessed as reduction in oleic acid-induced total cholesterol accumulation at 10 uM after 24 hrs by oil-red O staining based spectrophotometry. It is filed as functional, cell-based.
The subject of assay [4] is HepG2. Briefly: Inhibition of HMGCR gene expression in human HepG2 cells at 1 uM by quantitative real time PCR method. It is filed as functional, cell-based. A general note: Real-time PCR tracks product formation cycle by cycle.
Assay [5] addresses T1, Peroxisome proliferator-activated receptor alpha (Homo sapiens) (UniProt Q07869).
T1 sequence (whole entry): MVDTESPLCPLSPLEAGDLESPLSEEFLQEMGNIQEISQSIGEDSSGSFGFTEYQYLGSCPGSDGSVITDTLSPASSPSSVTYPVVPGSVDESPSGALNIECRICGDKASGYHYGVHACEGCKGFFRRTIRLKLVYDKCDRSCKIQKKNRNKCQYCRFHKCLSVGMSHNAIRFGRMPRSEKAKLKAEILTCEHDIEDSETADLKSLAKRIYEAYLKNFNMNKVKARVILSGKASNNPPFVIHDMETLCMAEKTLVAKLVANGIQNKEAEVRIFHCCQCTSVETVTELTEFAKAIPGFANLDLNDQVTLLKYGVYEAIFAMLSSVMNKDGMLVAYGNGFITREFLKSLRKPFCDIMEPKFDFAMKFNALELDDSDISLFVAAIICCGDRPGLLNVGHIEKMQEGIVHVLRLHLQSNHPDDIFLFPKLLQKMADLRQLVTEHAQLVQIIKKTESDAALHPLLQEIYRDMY
Kind of assay: Activation of PPARalpha transactivation in human HepG2 cells assessed as increase in transcriptional activity at 0.1 to 10 uM by luciferase reporter gene assay. It is filed as cell-based. (In a reporter assay the amount or activity of a reporter protein is the signal.)

Assay [6] concerns HepG2. Kind of assay: Effect on FAS protein expression in human HepG2 cells at 1 to 10 uM by Western blotting method. It is filed as functional, cell-based.
The subject of assay [7] is HepG2. Kind of assay: Increase in PDK4 gene expression in human HepG2 cells at 1 uM by quantitative real time PCR method. It is filed as functional, cell-based.
Assay [8] has as its system HepG2. Briefly: Lipid-lowering effect in human HepG2 cells assessed as reduction in oleic acid-induced neutral lipid accumulation at 1 and 10 uM after 24 hrs by oil-red O staining based spectrophotometry. It is filed as functional, cell-based.
Assay [9] deals with HepG2. Kind of assay: Lipid-lowering effect in human HepG2 cells assessed as reduction in oleic acid-induced triglyceride accumulation at 10 uM in presence of 10 uM PPARalpha antagonist MK886 by oil-red O staining based spectrophotometry. It is filed as functional, cell-based.
Assay [10] deals with HepG2. Briefly: Increase in CPT1 protein expression in human HepG2 cells at 1 to 10 uM by Western blotting method. It is filed as functional, cell-based. (In general: In western blotting, separated proteins are transferred to a membrane and probed.)
In assay [11] the test system is HepG2. Briefly: Increase in ACOX1 gene expression in human HepG2 cells at 1 uM by quantitative real time PCR method. It is filed as functional, cell-based.
Assay [12] relates to HepG2. Kind of assay: Increase in MCD1 gene expression in human HepG2 cells at 1 uM by quantitative real time PCR method. It is filed as functional, cell-based.
The subject of assay [13] is HepG2. Kind of assay: Lipid-lowering effect in human HepG2 cells assessed as reduction in oleic acid-induced total cholesterol accumulation at 1 and 10 uM after 24 hrs by oil-red O staining based spectrophotometry. It is filed as functional, cell-based.
The test system of assay [14] is HepG2. Briefly: Inhibition of FAS gene expression in human HepG2 cells at 1 uM by quantitative real time PCR method. It is filed as functional, cell-based.
The test system of assay [15] is HepG2. Briefly: Increase in PGC-1alpha protein expression in human HepG2 cells at 1 to 10 uM by Western blotting method. It is filed as functional, cell-based.
The subject of assay [16] is HepG2. Kind of assay: Lipid-lowering effect in human HepG2 cells assessed as reduction in oleic acid-induced triglyceride accumulation at 1 and 10 uM after 24 hrs by oil-red O staining based spectrophotometry. It is filed as functional, cell-based.
For assay [17], the system named is HepG2. Briefly: Lipid-lowering effect in human HepG2 cells assessed as reduction in oleic acid-induced total cholesterol accumulation at 10 uM in presence of 10 uM PPARalpha antagonist MK886 by oil-red O staining based spectrophotometry. It is filed as functional, cell-based.
The test system of assay [18] is HepG2. Briefly: Increase in PPARalpha protein expression in human HepG2 cells at 1 to 10 uM by Western blotting method. It is filed as functional, cell-based.
The test system of assay [19] is HepG2. Briefly: Inhibition of ACC gene expression in human HepG2 cells at 1 uM by quantitative real time PCR method. It is filed as functional, cell-based.
For assay [20], the system named is HepG2. Briefly: Increase in CPT1 gene expression in human HepG2 cells at 1 uM by quantitative real time PCR method. It is filed as functional, cell-based.
The test system of assay [21] is HepG2. Kind of assay: Increase in CYP7A1 gene expression in human HepG2 cells at 1 uM by quantitative real time PCR method. It is filed as functional, cell-based.
Assay [22] relates to HepG2. Kind of assay: Increase in PPARalpha gene expression in human HepG2 cells at 1 uM by quantitative real time PCR method. It is filed as functional, cell-based.

SMILES strings stand for the structures. The source made the active and inactive calls. The calls are words filed in the database; no cut-off is given here.

As to `O=C(O)CCCCC[C@H](O)c1ccccc1CO`, the inhibition result with HepG2 [1] is “Active”.
Same read-out and setting: the result for `O=C(O)/C=C/C=C/c1ccccc1CO` reads “inactive”.
Same read-out and setting: the result for `O=C(O)C[C@H](O)CCc1ccccc1CO` reads “inactive”; that for `CC(C)=CCC/C(C)=C/CC/C(C)=C/Cc1cc(O)c(C)cc1O`, “inactive”; that for `O=C(O)CCCCc1ccccc1CO`, “inactive”.
Still for that read-out and setting: as for `O=C(O)CCCC(=O)c1ccccc1CO`, the entry is “inactive”.
With `O=C(O)CC/C=C/c1ccccc1CO`, the inhibition result in the assay with HepG2 [1] was “inactive”.
As to `COC(=O)CC/C=C/c1ccccc1CO`, the inhibition entry in the assay with HepG2 [1] was “inactive”.
In the case of `CC[C@H](C)C(=O)O[C@H]1C[C@@H](C)C=C2C=C[C@H](C)[C@H](CC[C@@H]3C[C@@H](O)CC(=O)O3)[C@H]21`, the inhibition result with HepG2 [2], in the assay with HepG2 [1] and in the assay with HepG2 [3] was “Active” each time.
As to `CC(C)=CCC/C(C)=C/CC/C(C)=C/C[C@@]12O[C@@H]1[C@H](O)C(C)=CC2=O`, the inhibition result with HepG2 [1] was “inactive”.
Regarding `CC(C)=CCC/C(C)=C/CC/C(C)=C/CC1=CC(=O)C(C)=CC1=O`, the inhibition result in the assay on HepG2 [4], in the assay with HepG2 [9], in the assay with HepG2 [14], in the assay on HepG2 [17] and in the assay on HepG2 [19] was “inactive” in each case. The Activity entry in [5] is “Dose-dependent effect”. In the assay with HepG2 [1], the inhibition entry is “Active”. Further, the outcome in the assay on HepG2 [6] was inactive. Moreover, the result in the assay with HepG2 [7], with HepG2 [10], in the assay with HepG2 [11], in the assay on HepG2 [12], in the assay with HepG2 [15] and with HepG2 [18] was Active. In addition, the result with HepG2 [20], in the assay on HepG2 [21] and in the assay on HepG2 [22] was Active. For the same molecule, the inhibition entry in the assay on HepG2 [8], in the assay with HepG2 [13] and in the assay with HepG2 [16] was “Dose-dependent effect” in each case.

The values above are taken from ChEMBL document CHEMBL3352787, “Lipid-lowering effects of farnesylquinone and related analogues from the marine-derived Streptomyces nitrosporeus” (Bioorg Med Chem Lett, 2014).
